Test results from US6033867A, “Fructosyl amino acid oxidase, process for producing the same, and method of assaying amadori compounds using the enzyme” (Kyoto Daiichi Kagaku Co., Ltd., priority 1995, dated 2000).

Assays:
FAOD-A [1] = test: Effect of various inhibitors on FAOD-A activity; type: biochemical, A. terreus IFO6365; conditions: for inhibition of FAOD-A activity, in words: PCMB 0.1 mM, others 1 mM
Experimental: (§1) To an enzyme solution was added a solution containing a metal ion to be tested at a final concentration of 1 mM in 0.1 M Tris-HCl buffer (pH 8.0). After 5-minute-incubation at 30° C., the enzyme activity was assayed.
(§2) The inhibitory effect of various substances was tested in a manner substantially analogous to that described in (1) above. In the present test, the final concentration of parachloro mercuric benzoate (PCMB) is 0.1 mM while that of others 1 mM.

FAOD-A [2] = test: Effect of metal ion on the activity of FAOD-A; type: biochemical, A. terreus IFO6365; conditions: for effect of metal ion on FAOD-A, in words: 1 mM
Experimental: as §1

FAOD-L [3] = biological target: T1, FAOD-L (Aspergillus terreus, UniProt Q92204); test: Effect of metal ion on the activity of FAOD-L; type: biochemical, A. terreus GP1; conditions: for relative activity (%): material 1 mM, 0.1 M Tris-HCl pH 8.0, 5 min at 30° C., None = 100; for effect of metal ion on FAOD-L, in words: 1 mM
T1 construct: 94 kDa by gel filtration, 48 kDa subunit, so homodimer
Experimental: as §1

FAOD-L [4] = biological target: T1, FAOD-L; test: Effect of various inhibitors on FAOD-L activity; type: biochemical, A. terreus GP1; conditions: for inhibition of FAOD-L activity, in words: PCMB 0.1 mM, others 1 mM
Experimental: as §1, §2

[5] = biological target: T2, FAOD-L originated from A. terreus GP1 (Aspergillus terreus, UniProt Q92204); test: Substrate specificity of FAOD-L; type: biochemical
T2 construct: 94 kDa by gel filtration, 48 kDa subunit, so homodimer
T2 sequence (Q92204 1-437): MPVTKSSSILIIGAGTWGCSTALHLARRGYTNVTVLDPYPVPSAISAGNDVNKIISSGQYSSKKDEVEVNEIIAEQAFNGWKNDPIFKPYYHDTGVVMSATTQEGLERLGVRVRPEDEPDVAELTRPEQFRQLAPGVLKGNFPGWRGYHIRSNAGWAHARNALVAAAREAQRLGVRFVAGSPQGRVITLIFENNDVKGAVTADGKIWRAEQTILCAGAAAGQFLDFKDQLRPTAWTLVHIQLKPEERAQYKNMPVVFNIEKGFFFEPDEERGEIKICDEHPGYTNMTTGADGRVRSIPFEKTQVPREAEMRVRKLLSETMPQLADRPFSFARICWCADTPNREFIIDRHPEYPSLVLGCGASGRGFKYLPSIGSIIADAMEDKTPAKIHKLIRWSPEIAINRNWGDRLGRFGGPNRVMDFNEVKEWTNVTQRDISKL
Experimental: (§3) A 100 mM FZL solution was prepared by dissolving previously-obtained FZL in distilled water. To 100 μl of 45 mM 4-aminoantipyrine, 100 μl of 60 U/ml peroxidase, 100 μl of 60 mM phenol, 1 ml of 0.1 M Tris-HCl buffer (pH 8.0) and 50 μl of enzyme solution was added distilled water to total volume of 3.0 ml. The mixture was incubated at 30° C. for 2 minutes, 50 μl of 100 mM FZL solution was added thereto, and the time course of absorbance at 505 nm was measured. The amount (μmole) of hydrogen peroxide generated per minute was calculated on the basis of molar absorptivity (5.16×10^3 M^-1 cm^-1) of quinone pigment produced, and the resultant numerical value was taken as a unit(U) of enzyme activity.

[6] = system: FAOD-A originated from A. terreus IFO6365; test: Substrate specificity of FAOD-A; type: biochemical
Experimental: as §3

[7] = material 1 mM, 0.1 M Tris-HCl pH 8.0, 5 min at 30° C., None = 100
[8] = substrate concentration 1.67 mM

## O=C(O)CI [Acetic iodide]
FAOD-A [1]
  relative activity (%): 66%

## [Ca+2].[Cl-].[Cl-] [CaCl2]
FAOD-A [2]; [7]
  relative activity (%): 104%
FAOD-L [3]
  relative activity (%): 96%

## [Cl-].[Cs+] [CsCl]
FAOD-A [2]; [7]
  relative activity (%): 108%

## O=C(O)c1cc(SSc2ccc([N+](=O)[O-])c(C(=O)O)c2)ccc1[N+](=O)[O-] [DTNB, 5,5Dithiobis(2-nitrobenzoic acid)]
FAOD-A [1]
  inhibition of FAOD-A activity, in words: inhibit the FAOD-A activity completely
FAOD-L [4]
  inhibition of FAOD-L activity, in words: inhibit the FAOD-L activity strongly

## O=S(=O)([O-])[O-].[Fe+2] [FeSO4]
FAOD-L [3]
  relative activity (%): 95%

## [Cl-].[Li+] [LiCl]
FAOD-A [2]; [7]
  relative activity (%): 103%

## [Cl-].[Cl-].[Mg+2] [MgCl2]
FAOD-A [2]; [7]
  relative activity (%): 108%
FAOD-L [3]
  relative activity (%): 101%

## [Cl][Mn][Cl] [MnCl2]
FAOD-A [2]
  effect of metal ion on FAOD-A, in words: inhibitory
FAOD-A [2]; [7]
  relative activity (%): 59%
FAOD-L [3]
  relative activity (%): 101%

## O=C(N[C@@H](CCCCNCC(=O)[C@@H](O)[C@H](O)[C@H](O)CO)C(=O)O)OCc1ccccc1 [N^ε -fructosyl N^α -Z-lysine]
[5]; [8]
  Specific activity (%): 100%
[6]; [8]
  Specific activity (%): 100%

## [Cl-].[Na+] [NaCl]
FAOD-A [2]; pH 8
  relative activity (%): 104%

## [Cl-].[Rb+] [RbCl]
FAOD-A [2]; [7]
  relative activity (%): 107%

## [Co] [cobalt]
FAOD-A [2]
  effect of metal ion on FAOD-A, in words: inhibitory

## [Cu+2] [copper]
FAOD-L [3]
  effect of metal ion on FAOD-L, in words: inhibitory

## NN [hydrazine]
FAOD-A [1]
  inhibition of FAOD-A activity, in words: inhibit the FAOD-A activity completely
FAOD-L [4]
  inhibition of FAOD-L activity, in words: inhibit the FAOD-L activity strongly

## NO [hydroxylamine]
FAOD-A [1]; material 1 mM, None = 100
  relative activity (%): 10%
FAOD-L [4]; material 1 mM, None = 100
  relative activity (%): 2%

## c1cnc2c(c1)ccc1cccnc12 [o-Phenanthroline]
FAOD-A [1]; material 1 mM, None = 100
  relative activity (%): 62%

## O=C(O)c1cc[c]([Hg][Cl])cc1 [p-CMB, parachloro mercuric benzoate]
FAOD-A [1]
  inhibition of FAOD-A activity, in words: inhibit the FAOD-A activity completely
FAOD-L [4]
  inhibition of FAOD-L activity, in words: inhibit the FAOD-L activity strongly

## NNc1ccccc1 [phenylhydrazine]
FAOD-A [1]
  inhibition of FAOD-A activity, in words: inhibit the FAOD-A activity completely

## NNC(N)=O [semicarbazide]
FAOD-A [1]; material 1 mM, None = 100
  relative activity (%): 64%

## [Ag+] [silver]
FAOD-L [3]
  effect of metal ion on FAOD-L, in words: inhibited completely

## [Zn+2] [zinc]
FAOD-A [2]
  effect of metal ion on FAOD-A, in words: inhibited
FAOD-L [3]
  effect of metal ion on FAOD-L, in words: inhibitory

## c1ccc(-c2ccccn2)nc1 [α,α-Dipyridyl]
FAOD-A [1]; material 1 mM, None = 100
  relative activity (%): 67%

## Fructosyl valine
[5]; [8]
  Specific activity (%): 32.1%
[6]; [8]
  Specific activity (%): 20.5%

## N^ε -Fructosylpoly-L-lysine
[5]; substrate concentration 0.02%
  Specific activity (%): 0.30%
[6]; substrate concentration 0.02%
  Specific activity (%): 2.0%

## mercury
FAOD-A [2]
  effect of metal ion on FAOD-A, in words: inhibited
FAOD-L [3]
  effect of metal ion on FAOD-L, in words: inhibited completely
